Experimental data as given in the supplement of paper PMC3974653.
Counter-ions that a name gives are not always drawn.

System: MTT (mouse pheochromocytoma)
Experiment: IC50 of cell viability (ATP content)
Conditions: (24 or 48 h)
Procedure, shortened: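 Library compounds were tested at 8 final concentrations (0.5 nM to 46 µM) on MTT mouse pheochromocytoma cells for 24 or 48 hrs, with readout by CellTiter-Glo ATP luminescence. Signals were normalised with positive-control wells at 100% and DMSO wells at 0%. IC50 values were obtained by a four-parameter logistic fit.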

| Compound | IC50 of cell viability [µM] |
| --- | --- |
| CN(C)CCc1c[nH]c2cccc(OP(=O)(O)O)c12 [Psilocybin] | > 46 |
| C=CC1C[N@]2CCC1CC2C(OC(=O)OCC)c1ccnc2ccc(OC)cc12 (some centres undefined) [QUININE ETHYL CARBONATE] | > 46 |
| c1ccc2nc(N3CCNCC3)ccc2c1 [QUIPAZINE] | > 46 |
| C[C@@H](C(=O)O)c1ccc(C2CCCCC2)c2ccccc12 [Quadrisol] | > 46 |
| O.O.OC1=CC2=C(C(=C1)O)C(=O)\C(=C(/O2)C3=CC(=C(O)C=C3)O)O [Quercetine dihydrate] | > 46 |
| OC(c1ccccc1)(c1ccccc1)C1CN2CCC1CC2 (centres undefined) [Quifenadine] | > 46 |
| CCN(CC)CCC[C@H](C)Nc1c2ccc(Cl)cc2nc2ccc(OC)cc12.Cl.Cl.O.O [Quinacrine dihydrochloride dihydrate] | > 46 |
| [O-][n+]1cc[n+]([O-])c2ccccc21 [Quindoxin] | > 46 |
| C=C[C@H]1CN2CCC1C[C@H]2[C@H](O)c1ccnc2ccc(OC)cc12.C=C[C@H]1CN2CCC1C[C@H]2[C@H](O)c1ccnc2ccc(OC)cc12.O.O.O=[S+]([O-])(O)O (some centres undefined) [Quinine hemisulfate salt monohydrate] | > 46 |
| CCCN1CCC[C@H](c2cccc(O)c2)C1.Cl [R(+)-3PPP hydrochloride] | > 46 |
| CCN(CC)C(=O)N[C@@H]1C[C@@H]2c3cccc4[nH]cc(c34)C[C@H]2N(C)C1 [R(+)-TERGURIDE] | > 46 |
| C=CCC1(C(C)CCC)C(=O)NC(=O)NC1=O (stereo not drawn) [R-(+)-Secobarbital] | > 46 |
| CC(CCc1ccc(O)cc1)NCC(O)c1ccc(O)cc1 (centres undefined) [RACTOPAMINE HYDROCHLORIDE] | > 46 |
| Cl.CC(C)NC/1=C(C)/N(C)N(C1=O)C2=CC=CC=C2 [RAMIFENAZONE] | > 46 |
| C=CC[N+]1([C@H]2C[C@H]3[C@@H]4CC[C@H]5C[C@H](OC(C)=O)[C@@H](N6CCCCC6)C[C@]5(C)[C@H]4CC[C@]3(C)[C@H]2OC(=O)CC)CCCCC1 [RAPACURONIUM BROMIDE] | > 46 |
| C#CCN[C@@H]1CCc2ccccc21 [RASAGILINE MESYLATE] | > 46 |

| Compound | IC50 of cell viability [µM] |
| --- | --- |
| OC(=O)C(CC/1=C/C(=O)NC2=CC=CC=C12)NC(=O)C3=CC=C(Cl)C=C3 (centres undefined) [REBAMIPIDE] | > 46 |
| COC1/C=C/O[C@@]2(C)Oc3c(C)c(O)c4c(O)c(c(C=NN5CCN(C)CC5)c(O)c4c3C2=O)NC(=O)C(C)=C/C=C/C(C)C(O)[C@@H](C)C(O)C(C)[C@H](OC(C)=O)C1C (some centres undefined) [RIFAMPIN] | > 46 |
| CO[C@H]1/C=C/O[C@@]2(C)Oc3c(C)c(O)c4c(O)c(c(/C=N\N5CCN(C6CCCC6)CC5)c(O)c4c3C2=O)NC(=O)C(C)=C/C=C/[C@H](C)[C@H](O)[C@@H](C)[C@@H](O)[C@@H](C)[C@H](OC(C)=O)[C@@H]1C [RIFAPENTINE] | > 46 |
| C1C\N=C(\NC(C2CC2)C3CC3)O1 [RILMENIDINE] | > 46 |
| CC/1=C(\CCN2CCC(CC2)C3=NOC4=C3C=CC(=C4)F)C(=O)N/5CCCCC5=N1 [RISPERIDONE] | > 46 |
| CCN(C)C(=O)Oc1cccc([C@H](C)N(C)C)c1 [RIVASTIGMINE TARTRATE] | > 46 |
| CN(C)CCc1c[nH]c2ccc(Cn3cncn3)cc12 [RIZATRIPTAN] | > 46 |
| N=C(N/N=C/c1ccc(Cl)cc1)N/N=C/c1ccc(Cl)cc1 [ROBENIDINE HYDROCHLORIDE] | > 46 |
| C=CC[N+]1([C@H]2C[C@H]3[C@@H]4CC[C@H]5C[C@H](O)[C@@H](N6CCOCC6)C[C@]5(C)[C@H]4CC[C@]3(C)[C@H]2OC(C)=O)CCCC1 [ROCURONIUM BROMIDE] | > 46 |
| C[S+]([O-])(=O)C1=CC=C(C=C1)C/2=C(/C(=O)OC2)C3=CC=CC=C3 [ROFECOXIB] | > 46 |
| CCCN(CCC)CCc1cccc2c1CC(=O)N2 [ROPINROLE] | > 46 |
| CCC1OC(=O)C[C@@H](O)[C@H](C)[C@@H](OC2OC(C)CC(N(C)C)C2O)[C@@H](CC=O)C[C@@H](C)C(=O)/C=C/[C@]2(C)OC2C1C (some centres undefined) [ROSAMICIN] | > 46 |
| CCCN(CCc1cccs1)[C@H]1CCc2c(O)cccc2C1 [ROTIGOTINE] | > 46 |
| O=C(Nc1ccc(Oc2ccc(Cl)cc2)c(Cl)c1)c1cc(I)cc(I)c1O [Rafoxanide] | > 46 |
| CCOc1ccccc1OC(c1ccccc1)C1CNCCO1 (centres undefined) [Reboxetine mesylate] | > 46 |

The next lines start with the values.

| IC50 of cell viability [µM] | Compound |
| --- | --- |
| > 46 | CN1CCCN=C1/C=C\c1cccs1.O=C(O)[C@@H](O)[C@@H](O)C(=O)O [Pyrantel tartrate] |
| > 46 | NC(=O)c1cnccn1 [Pyrazinamide] |
| > 46 | Cc1ncc(CO)c(CN)c1O [Pyridoxamine dichlorohydrate] |
| > 46 | Cc1ncc(CO)c(CO)c1O [Pyridoxine] |
| > 46 | CCOC(=O)C(CCc1ccccc1)NC(C)C(=O)N1Cc2ccccc2CC1C(=O)O.Cl (centres undefined) [QUINAPRIL HYDROCHLORIDE] |
| > 46 | C=CC1CN2CCC1CC2[C@@H](O)c1ccnc2ccc(OC)cc12 (some centres undefined) [QUINIDINE GLUCONATE] |
| > 46 | C=C[C@H]1CN2CCC1C[C@H]2[C@H](O)c1ccnc2ccc(OC)cc12 (some centres undefined) [QUININE ASCORBATE] |
| > 46 | CCc1ncnc2cc(OC)c(OC)cc12 [Quazodine] |
| > 46 | CC[C@H]1NC(=O)c2cc([S+](N)(=O)[O-])c(Cl)cc2N1 [Quinethazone] |
| > 46 | COc1ccc(CCNC[C@@H](O)c2ccc(O)cc2)cc1OC [R(-)-Denopamine] |
| > 46 | CC(C)NC[C@@H](O)COc1ccc(CC(N)=O)cc1 [R-(+)-ATENOLOL] |
| > 46 | CC(C)NC[C@@H](O)COc1cccc2ccccc12 [R-(+)-PROPRANOLOL] |
| > 46 | COCCCOc1ccnc(C[S+]([O-])c2nc3ccccc3[n-]2)c1C (centres undefined) [RABEPRAZOLE SODIUM] |
| > 46 | C=C1NC(=O)c2cc(CN(C)c3ccc(C(=O)N[C@@H](CCC(=O)O)C(=O)O)s3)ccc2N1 [RALTITREXED] |
| > 46 | O=C(O)CCn1c2c(c3ccccc31)C[C@H](N[S+](=O)([O-])c1ccc(F)cc1)CC2 [RAMATROBAN] |
| > 46 | CCC(=O)NCCC1CCc2ccc3c(c21)CCO3 (centres undefined) [RAMELTEON] |
| > 46 | Cn1cc(C(=O)[C@@H]2CCc3[nH]cnc3C2)c2ccccc21 [RAMOSETRON HYDROCHLORIDE] |
| > 46 | CN/C(=C\[N+](=O)[O-])NCCSCc1ccc(CN(C)C)o1 [RANITIDINE] |
| > 46 | COc1ccccc1OCC(O)CN1CCN(CC(=O)Nc2c(C)cccc2C)CC1 (centres undefined) [RANOLAZINE] |

| IC50 of cell viability [µM] | Compound |
| --- | --- |
| > 46 | COC(=O)[C@H]1[C@H]2C[C@H]3c4[nH]c5ccccc5c4CCN3C[C@H]2CC[C@@H]1O [RAUWOLSCINE] |
| > 46 | COc1ccc([S+](=O)([O-])N2c3ccc(Cl)cc3[C@](O)(c3ccccc3Cl)[C@@H]2C(=O)N2CCC[C@H]2C(N)=O)cc1OC [RELCOVAPTANUM] |
| > 46 | CCN1CCC[C@H]1CNC(=O)c1c(OC)ccc(Br)c1OC [REMOXIPRIDE] |
| > 46 | CC(C)Cc1ccc([C@@H](C)C(=O)NS(C)(=O)=O)cc1.NCCCC[C@H](N)C(=O)O [REPARIXIN] |
| > 46 | CC(=O)Oc1cccc(O)c1 [RESORCINOL MONOACETATE] |
| > 46 | NC(=O)c1ncn(C2OC(CO)C(O)C2O)n1 (centres undefined) [RIBAVIRIN] |
| > 46 | O=C1CC[C@H](C(=O)N[C@@H]2C[C@H]2c2ccccc2)N1 [ROLICYPRINUM] |
| > 46 | Cn1c([N+](=O)[O-])cnc1COC(N)=O [RONIDAZOLE] |
| > 46 | CCCN1CCCC[C@H]1C(=O)Nc1c(C)cccc1C [ROPIVACAINE HYDROCHLORIDE MONOHYDRATE] |
| > 46 | CN(CCOc1ccc(CC2SC(=O)NC2=O)cc1)c1ccccn1 (centres undefined) [ROSIGLITAZONE] |
| > 46 | CC(C)c1nc(N(C)[S+](C)(=O)[O-])nc(-c2ccc(F)cc2)c1/C=C/C(O)CC(O)CC(=O)O (centres undefined) [ROSUVASTATIN] |
| > 46 | CC(=O)OCC(=O)NCCCOc1cccc(CN2CCCCC2)c1 [ROXATIDINE ACETATE HYDROCHLORIDE] |
| > 46 | NC(=O)c1cn(Cc2c(F)cccc2F)nn1 [RUFINAMIDE] |
| > 46 | CN1CCN(CC1)C2=C(F)C=C3C(=O)\C(=C/N4CCSC2=C34)C(O)=O [RUFLOXACINUM] |
| > 46 | CC(=O)SC[C@@H](Cc1ccccc1)C(=O)NCC(=O)OCc1ccccc1 [Racecadotril] |
| > 46 | O=C(c1ccc(OCCN2CCCCC2)cc1)c1c(-c2ccc(O)cc2)sc2cc(O)ccc12 [Raloxifene hydrochloride] |
| > 46 | CN\1C(=O)C(=C(\N=C1C(C)(C)NC(=O)C2=NN=C(C)O2)C(=O)NCC3=CC=C(F)C=C3)/O [Raltegravir] |
| > 46 | CN(CC1=CC2=C(N\C(=N/C2=O)C)C=C1)C3=CC=C(S3)C(=O)N[C@@H](CCC(O)=O)C(O)=O [Raltitrexed] |
| > 46 | CCOC(=O)[C@H](CCc1ccccc1)N[C@@H](C)C(=O)N1[C@@H](C(=O)O)C[C@H]2CCC[C@@H]21 [Ramipril] |
